Assay results as given in patent US11512203B2, “Water-soluble azo compound or salt thereof, ink and recording medium” (Nippon Kayaku Kabushiki Kaisha, priority 2016, dated 2022).

Columns and labels:
Type in all cases: physicochemical
[1] = Xenon light resistance test, inks of Examples 10 to 12 (Table 53); details: Glossy paper 1 Canon GL-101, 2 Epson Crispia, 3 Brother BP71G
Description: Inks of Examples 10 to 12 were prepared as in Example 1 except that the compounds represented by the above formulae (110) to (112) were used, respectively, instead of the compound represented by the above formula (101).
(§1) Ink-jet recording was performed with an ink-jet printer (Canon, Inc., Product name: PIXUS ip7230) to allow each of the inks from Examples 10 to 12 and Comparative Examples 1, 2 above to be attached on the following glossy papers 1 to 3. Upon performing recording, image patterns were created so that the density can be obtained in a gradation of 6 levels: 100%, 85%, 70%, 55%, 40%, and 25% to obtain a half-tone recorded article. The resulting recorded article was used as a test piece to perform the following tests.
(§2) Glossy paper 1: Canon, Inc., Product name: Canon Photograph paper, gold grade (GL-101)
(§3) Glossy paper 2: Seiko Epson Corporation, Product name: Photograph paper Crispia
(§4) Glossy paper 3: Brother Industries, Ltd., Product name: BP71G
(§5) When required, color measurements of a recorded image were performed using a colorimeter (Product name SpectroEye from X-rite, Inc.). Color measurements were performed under the conditions of a density standard of ANSI A, a wide viewing angle of 2 degrees, a light source of D50. […]

[2] = Xenon light resistance test, ink of Example 13 (Table 54); details: Glossy paper 1 Canon GL-101, 2 Epson Photograph paper <glossy>, 3 FUJIFILM Gasai Photo-finishing Pro
Description: An ink of Example 13 was prepared as in Example 1 except that the compound represented by the above formula (113) was used instead of the compound represented by the above formula (101).
as §1, with “Example 13” for “Examples 10 to 12”
as §2
Glossy paper 2: Seiko Epson Corporation, Product name: Photograph paper
Glossy paper 3: FUJIFILM Corporation, Product name: Gasai Photo-finishing Pro
as §5

[3] = Xenon light resistance test, ink of Example 17 (Table 57)
Description: An ink of Example 17 was prepared as in Example 1 except that the compound represented by the above formula (117) was used instead of the compound represented by the above formula (101).
as §1, with “Example 17” for “Examples 10 to 12”, “1, 2.” for “1 to 3.”
(§6) Glossy paper 1: Canon, Inc., Product name: Canon Photograph paper, platinum grade (PT-201)
Glossy paper 2: FUJIFILM Corporation, Product name: Gasai Photo-finishing Pro
When required, color measurements of a recorded image were performed using a colorimeter (Product name SpectroEye from X-rite, Inc.). Color measurements were performed under the conditions of a density standard of ANSI A, a wide viewing angle of 2 degrees, a light source of D50.
A test piece with a holder was placed in a xenon weatherometer XL75 (Suga Test Instruments Co., Ltd.), and irradiated for 168 hours at a temperature of 24° C., a humidity of 60% RH, and an illuminance of 100 klux. […]

[4] = Xenon light resistance test, inks of Examples 1, 2 (Table 48); details: xenon 100 klux, 168 hours, 24° C., 60% RH, 55% density gradation, grade of coloring matter persistence rate; for Results from light resistance tests, Glossy paper 3: ink on Brother BP71G; for Results from light resistance tests, Glossy paper 1: ink on Canon Photograph paper, platinum grade (PT-201); for Results from light resistance tests, Glossy paper 4: ink on FUJIFILM Gasai Photo-finishing Pro; for Results from light resistance tests, Glossy paper 2: ink on Seiko Epson Photograph paper Crispia
Description: Components shown in Table 47 below were mixed to obtain solutions, which were then subjected to precision filtration through 0.45 μm membrane filters to prepare inks of Examples 1, 2 and Comparative Examples 1, 2. The numerical values in the table are in terms of “parts,” and the symbol “-” means that that component is not included. In Table 47 below, the component […] is indicated as “remainder”.
as §1, with “1, 2” for “10 to 12”, “2” for “2 above”, “4.” for “3.”
as §6, §3, §4
(§7) Glossy paper 4: FUJIFILM Corporation, Product name: Gasai Photo-finishing Pro
When required, color measurements were performed for a recorded image using a colorimeter (Product name SpectroEye from X-rite, Inc.). Color measurements were performed under the conditions of a density standard of ANSI A, a wide viewing angle of 2 degrees, a light source of D50.
A test piece with a holder was placed in a xenon weatherometer XL75 (Suga Test Instruments Co., Ltd.), and irradiated for 168 hours at a temperature of 24° C., a humidity of 60% RH, and an illuminance of 100 klux. A gradation portion with a density of 55% of each test piece was subjected to color measurements of reflection densities before and after the test. A coloring matter persistence rate was computed from the reflection densities obtained, and evaluation was performed using the following 3-grade criteria.
A coloring matter persistence rate of 85% or more: A A coloring matter persistence rate of 81% or more and less than 85%: B
A coloring matter persistence rate of less than 81%: C
(Formula for Computing Coloring Matter Persistence Rate) Coloring matter persistence rate (%)=(reflection density after test/reflection density before test)×100

[5] = Xenon light resistance test, ink of Example 4 (Table 50); details: for each glossy paper (Table 50)
Description: An ink of Example 4 was prepared as in Example 1 except that the compound represented by the above formula (104) was used instead of the compound represented by the above formula (101).
as §1, with “4” for “10 to 12”, “4.” for “3.”
as §6, §3, §4, §7
When required, color measurements of a recorded image were performed using a colorimeter (Product name SpectroEye from X-rite, Inc.). Color measurements were performed under the conditions of a density standard of DIN NB, a wide viewing angle of 2 degrees, a light source of D65. […]

[6] = Xenon light resistance test, ink of Example 16 (Table 56)
Description: An ink of Example 16 was prepared as in Example 1 except that the compound represented by the above formula (116) was used instead of the compound represented by the above formula (101).
as §1, with “Example 16” for “Examples 10 to 12”, “4.” for “3.”
as §6
Glossy paper 2: Canon, Inc., Product name: Canon Photograph paper, gold grade (GL-101)
Glossy paper 3: Seiko Epson Corporation, Product name: Photograph paper Crispia
Glossy paper 4: Brother Industries, Ltd., Product name: BP71G
as §5

CCNc1nc(Nc2cc(Cl)c(N=Nc3ccc(Cl)c(S(=O)(=O)O)c3)cc2OCCCS(=O)(=O)O)nc(Nc2cc(Cl)c(N=Nc3ccc(Cl)c(S(=O)(=O)O)c3)cc2OCCCS(=O)(=O)O)n1 [Example 10]
light resistance results as compared with Comparative Example 2 [1]: better results for each glossy paper

O=S(=O)(O)CCCOc1cc(N=Nc2ccc(Cl)c(S(=O)(=O)O)c2)c(Cl)cc1Nc1nc(Nc2cc(Cl)c(N=Nc3ccc(Cl)c(S(=O)(=O)O)c3)cc2OCCCS(=O)(=O)O)nc(NC(CO)CO)n1 [Example 13]
light resistance results as compared with Comparative Example 2 [2]: better results for each glossy paper

O=S(=O)(O)CCCOc1cc(N=Nc2ccc(Cl)c(S(=O)(=O)O)c2)c(Cl)cc1Nc1nc(Nc2cc(Cl)c(N=Nc3ccc(Cl)c(S(=O)(=O)O)c3)cc2OCCCS(=O)(=O)O)nc(N2CCCC2)n1 [Example 17]
light resistance as compared with Comparative Examples 1, 2 (conclusion) [3]: superior light resistance | light resistance results as compared with Comparative Examples 1, 2 [3]: good results for each glossy paper

COc1cc(N=Nc2cccc(S(=O)(=O)O)c2)ccc1NC(=O)Nc1ccc(N=Nc2cccc(S(=O)(=O)O)c2)cc1OC [Comparative Example 2, C.I. Direct Yellow 132]
Results from light resistance tests, Glossy paper 3 [4]: B (A coloring matter persistence rate of 81% or more and less than 85%) | Results from light resistance tests, Glossy paper 1 [4]: B (A coloring matter persistence rate of 81% or more and less than 85%) | Results from light resistance tests, Glossy paper 4 [4]: B (A coloring matter persistence rate of 81% or more and less than 85%) | Results from light resistance tests, Glossy paper 2 [4]: C (A coloring matter persistence rate of less than 81%)

O=S(=O)(O)CCCOc1cc(N=Nc2ccc(Cl)c(S(=O)(=O)O)c2)c(Cl)cc1Nc1nc(NCCO)nc(Nc2cc(Cl)c(N=Nc3ccc(Cl)c(S(=O)(=O)O)c3)cc2OCCCS(=O)(=O)O)n1 [Comparative Example 1]
Results from light resistance tests, Glossy paper 3 [4]: B (A coloring matter persistence rate of 81% or more and less than 85%) | Results from light resistance tests, Glossy paper 1 [4]: B (A coloring matter persistence rate of 81% or more and less than 85%) | Results from light resistance tests, Glossy paper 4 [4]: C (A coloring matter persistence rate of less than 81%) | Results from light resistance tests, Glossy paper 2 [4]: B (A coloring matter persistence rate of 81% or more and less than 85%)

COCCCNc1nc(Nc2cc(Cl)c(N=Nc3ccc(Cl)c(S(=O)(=O)O)c3)cc2OCCCS(=O)(=O)O)nc(Nc2cc(Cl)c(N=Nc3ccc(Cl)c(S(=O)(=O)O)c3)cc2OCCCS(=O)(=O)O)n1 [Example 4]
light resistance tests, results compared with Comparative Examples 1, 2 [5]: better results

O=S(=O)(O)CCCOc1cc(N=Nc2ccc(Cl)c(S(=O)(=O)O)c2)c(Cl)cc1Nc1nc(NCC2CCCO2)nc(Nc2cc(Cl)c(N=Nc3ccc(Cl)c(S(=O)(=O)O)c3)cc2OCCCS(=O)(=O)O)n1 (stereo not drawn) [Example 16]
light resistance as compared with Comparative Examples 1, 2 (conclusion) [6]: superior light resistance | light resistance results as compared with Comparative Examples 1, 2 [6]: good results for each glossy paper
